According to the NIST ThermoML archive (doi:10.1016/j.fluid.2017.05.012):
± gives the expanded uncertainty stated by the source.

Conditions: Liquid, Ebulliometric method (Recirculating still)

Structure (SMILES): CCCO [propan-1-ol]
- vapor or sublimation pressure (370.2 K): 101 ± 1 kPa

Structure (SMILES): O [water]
- vapor or sublimation pressure (372.9 K): 101 ± 1 kPa

Structure (SMILES): CCCOC(C)=O [propyl ethanoate]
- vapor or sublimation pressure (374.8 K): 101 ± 1 kPa
